Data on three compounds can be found in patent publication US10039846B2, “Compositions targeting bradykinin receptor B1 for medical imaging of cancer and other disorders” (BRITISH COLUMBIA CANCER AGENCY BRANCH, priority 2012, dated 2018).

Where “and” joins values, the source holds several entries; their conditions need not be identical. Identical values can stand only once. Like-named read-outs stand apart in the source and are kept apart here. Where a SMILES comes first, the peptide text is derived from it. Where no end group is shown, it is not given here. [ ]: non-standard residue; d: D form. The star is where a group is joined. DOTA = O=C(O)CN1CCN(CC(=O)O)CCN(CC(=O)*)CCN(CC(=O)O)CC1; Hyp = O=C(O)[C@@H]1C[C@@H](O)CN1; Cha = N[C@@H](CC1CCCCC1)C(=O)O; PEG2 = NCCOCCOCCC(=O)O; Sar = CNCC(=O)O

Series [1] addresses T1, B1R (Homo sapiens, UniProt P46663).
T1 sequence (P46663 1-353): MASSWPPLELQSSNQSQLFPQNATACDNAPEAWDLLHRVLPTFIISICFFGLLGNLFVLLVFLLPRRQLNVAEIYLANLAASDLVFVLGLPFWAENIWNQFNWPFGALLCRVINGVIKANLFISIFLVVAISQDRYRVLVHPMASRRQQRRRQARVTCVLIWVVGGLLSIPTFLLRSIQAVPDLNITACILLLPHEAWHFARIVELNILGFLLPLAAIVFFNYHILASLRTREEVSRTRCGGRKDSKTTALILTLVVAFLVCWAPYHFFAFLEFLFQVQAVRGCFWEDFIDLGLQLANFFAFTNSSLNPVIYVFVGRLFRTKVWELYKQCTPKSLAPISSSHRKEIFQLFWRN
As to the kind of experiment: Competitive binding assay with 3H radioligand on CHO-K1 cell membranes over-expressing human B1R. More on the design: purchased Perkin Elmer Inc., Waltham, Mass; ES-091-M400UA; host or cells: CHO-K1 cells over-expressing human B1R (membrane preparation). How it is done: The ability of the peptide and small molecule B1R targeting compounds to bind to B1R was assessed in competitive binding assay as described below.
Preparation of Cell Membranes: Ready to use cell membranes (12.5 μg/μL) from CHO-K1 cells over-expressing human B1R were obtained from Perkin Elmer Inc., Waltham, Mass. (cat. no. ES-091-M400UA). Binding using cell membranes from HEK293T::GFP::hB1R (from Example 3) was also tested. In the latter case, the membranes were prepared as follows: 90% confluent cells grown in large flask, T225, were detached and pelleted in a 50 mL conical tube using centrifuge at 1,200 rpm for 5 minutes. Afterward, cells were re-suspended in 20-30 mL of cold 50 mM Tris-HCl pH 7.4. Ice cold cells were disrupted for 15 seconds at 15,000 rpm with a Polytron PT3100 (Kinematica AG, Lucerne, Switzerland). The solution was aliquoted and centrifuged at 4° C. at 17,000×g for 30 minutes. The supernatant was discarded, and then the pellet was dissolved in 1-2 mL of cold salt solution containing 50 mM Tris-HCl pH 7.4 and 100 mM NaCl and incubated for 1 hour on ice. The cell membranes were pelleted by centrifugation at 4° C. at 17,000×g for 30 minutes and resuspended in 200-600 μL of 50 mM Tris-HCl pH 7.4. The cell membrane extract was stored at −80° C. Protein concentration was determined by Bradford assay (cat. no. R1271, Fermentas, Thermo Fisher Scientific, Burlington, ON). 50 ug of cell membranes per well was used for the competitive binding assay. […] Radio-labelled control was H-3 labelled [Leu^9,des-Arg^10] kallidin obtained either from American Radiolabelled Chemicals Inc, St. Louis, Mo.
Competitive Binding Assays: Assays were performed using 96-well MultiScreenHTS with glass fiber filter and PVDF support obtained from Millipore Corp, Billerica, Mass. (cat. no. MSFB N6B, lot no. R8AN42424). Wells of the MultiScreen plate were pre-soaked with 0.5% of cold Poly(ethyleneimine) (PEI) (cat. no. P3143, Sigma-Aldrich, St. Louis, Mo.) for 30 minutes. Afterward, wells were washed once with 50 mM of Tris-HCl pH 7.4. Total volume per wells was 200 μL. A fixed concentration of the hot radioligand (1, 3, 5 or 12.5 nM depending on the radioligand; see Table 5) was incubated with progressively higher concentrations (10^−11 to 10^−4 M) of the non-radioactive competitor of interest in the presence of cell membranes (50 μg/well) and the assay buffer (50 mM Tris-HCl pH 7.4, 5 mM MgCl2). The MultiScreen plate was then incubated at 27° C. for 15 minutes with agitation at 300 rpm. The assay was stopped by suctioning the reaction solution through the bottom PVDF membrane filter and discarded. The membranes were washed 7× with 150 μL/well of cold 50 mM Tris-HCl pH 7.4. Radioactivity was counted using 1450 MicroBeta TriLux—Microplate Scintillation and Luminescence Counter (Perkin Elmer Inc., Shelton, Conn.).

Series [2] concerns HEK-293 and HEK-293/BKRB1 tumours. To be noted: mouse, in vivo, iv.
Description: For in vivo imaging, HEK-293 and HEK-293 cells stably transfected with the human bradykinin receptor B1 (HEK-293/BKRB1) were inoculated in the flank of immunodeficient mice (NODSCID IL2rKO). […] A computer tomography image of the mouse was obtained for organ localization and attenuation correction, followed by PET imaging, using a Siemens Inveon multimodality preclinical scanner. Images were acquired over 10-15 minutes for each animal.
The next series can be described thus: in vivo. To be noted: NODSCID/IL2RKO, mouse, total radioactivity. As to the method:
(§1) ^68Ga labeling of Peptide 4 was performed in NaOAc buffer (pH 4.1) at 110° C. for 10 min, and [^68Ga]P03083 was purified by HPLC. PET imaging and biodistribution studies were performed in NODSCID/IL2RKO mice bearing both B1R-negative HEK293T:GFP tumour and B1R-positive HEK293T:hB1R tumour.

Series [3] has as its system B1R-negative HEK293T:GFP tumour and B1R-positive HEK293T:hB1R tumour. Description: in vivo. The note with it: mouse. How it is done: as §1
The target of another series is T2, B2R (Homo sapiens, UniProt P30411).
T2 sequence (P30411 1-391): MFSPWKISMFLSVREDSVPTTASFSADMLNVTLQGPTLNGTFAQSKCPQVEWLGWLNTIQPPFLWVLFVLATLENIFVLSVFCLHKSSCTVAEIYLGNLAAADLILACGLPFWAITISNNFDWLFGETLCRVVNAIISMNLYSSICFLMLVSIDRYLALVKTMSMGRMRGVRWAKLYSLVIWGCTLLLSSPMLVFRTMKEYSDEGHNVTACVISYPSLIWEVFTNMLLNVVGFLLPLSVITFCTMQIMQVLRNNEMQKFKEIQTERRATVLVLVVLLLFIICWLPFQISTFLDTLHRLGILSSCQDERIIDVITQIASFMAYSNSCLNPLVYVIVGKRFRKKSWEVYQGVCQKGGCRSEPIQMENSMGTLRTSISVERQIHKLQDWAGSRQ
To be noted: Cote et al, Peptides 2009; cited from earlier work.

Series [4] addresses T1, B1R. The note with it: Cote et al, Peptides 2009; cited from earlier work.

Usually tissue uptake stands for the share of the injected amount in each gram of the tissue.

Consider `CC(C)C[C@H](NC(=O)[C@@H]1CCCN1C(=O)[C@H](CO)NC(=O)[C@H](CC1CCCCC1)NC(=O)CNC(=O)[C@@H]1C[C@@H](O)CN1C(=O)[C@@H]1CCCN1C(=O)[C@H](CCCNC(=N)N)NC(=O)[C@H](CCCCN)NC(=O)CCOCCOCCNC(=O)CN1CCN(CC(=O)O)CCN(CC(=O)O)CCN(CC(=O)O)CC1)C(=O)O` [Peptide 3, Ga-DOTA-PEG2-Lys-Arg-Pro-Hyp-Gly-Cha-Ser-Pro-Leu] ({DOTA-PEG2}-KRP[Hyp]G[Cha]SPL-OH), for which the Ki is 17.1 nM and 16 nM on B1R [1] (Hot 4.6 nM BK-ANT-ARC, CHO-K1 membranes, individual assays, read-out: Ki); 32.8 nM on B1R [1] (text of Example 5, referring to Example 4, read-out: binding affinity for B1R). In addition, the background activity result in series [2] is given as “very low background activity”. Further, the clearance route entry in series [2] is “renal and bladder clearance”.

On to `CC(C)C[C@H](NC(=O)[C@@H]1CCCN1C(=O)[C@H](CO)NC(=O)[C@H](Cc1ccccc1)NC(=O)CNC(=O)[C@@H]1CCCN1C(=O)[C@@H]1CCCN1C(=O)[C@H](CCCNC(=N)N)NC(=O)[C@H](CCCCN)NC(=O)CCCCCNC(=O)CN1CCN(CC(=O)O)CCN(CC(=O)O)CCN(CC(=O)O)CC1)C(=O)O` [[^68Ga]-Peptide 4, metal not drawn], for which, in “in vivo” (kidney uptake), the tissue uptake at 1 h was determined as 74.9 ± 29.2 %ID/g. For the same compound, the tissue uptake at 1 h in “in vivo” (uptakes in both B1R-negative and B1R-positive tumors) was found to be 1.1 ± 0.4 %ID/g. Besides, in series [3], the excretion of radioactivity result is “mainly excreted through the renal pathway” and the “specific uptake to B1R in tumours” value was “No specific uptake”.

In the case of “Sar-Lys-Arg-Pro-Hyp-Gly-Cha-Ser-Pro-(D-Phe) ([Sar]KRP[Hyp]G[Cha]SP[dF])”, the Ki with B2R was above 10000 nM; with B1R [4] it was 0.06 nM.
